Data from the supplement of paper PMC8253809.

Key:
HABS [1] = astrocyte control; test: EC50 (inflection of fitted growth-inhibition curve) (log10 M)
In short: (§1)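 A pin tool was used to add a 10-point threefold dilution series (mean top concentration 35 μM), in triplicate, to patient-derived pHGG/DIPG cell lines and astrocyte controls seeded on 384-well plates coated with 1% Geltrex. After 7 days at 37 °C and 5% CO2 (3 days for iAstro), CellTiter-Glo luminescence was log2-transformed, normalised on each plate to % activity relative to negative (solvent) and positive control wells, and pooled. EC50 and maximal response (yFin) were read from the three- or four-parameter log-logistic fit with the lowest AICc.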

SUDIPGXXI [2] = diffuse intrinsic pontine glioma line; test: as above
In short: as §1

HGGX6 [3] = H3.3 G34R paediatric high-grade glioma line; test: as above
In short: as §1

DIPGX37 [4] = H3.3 K27M diffuse intrinsic pontine glioma line; test: as above
In short: as §1

DIPGX9 [5] = diffuse intrinsic pontine glioma line; test: as above
In short: as §1

SUDIPGXVII [6] = diffuse intrinsic pontine glioma line; test: as above
In short: as §1

SUDIPGXIX [7] = diffuse intrinsic pontine glioma line; test: as above
In short: as §1

iAstro [8] = astrocyte control; test: as above
In short: as §1

SUDIPGVI [9] = diffuse intrinsic pontine glioma line; test: as above
In short: as §1

HGGX39 [10] = paediatric high-grade glioma line; test: as above
In short: as §1

HGGX42 [11] = H3.3 G34R paediatric high-grade glioma line; test: as above
In short: as §1

DIPGX7 [12] = H3.3 K27M diffuse intrinsic pontine glioma line; test: as above
In short: as §1

HGGX2 [13] = paediatric high-grade glioma line; test: as above
In short: as §1

SUDIPGIV [14] = diffuse intrinsic pontine glioma line; test: as above
In short: as §1

DIPGX29 [15] = H3.3 K27M diffuse intrinsic pontine glioma line; test: as above
In short: as §1

SUDIPGXIII [16] = diffuse intrinsic pontine glioma line; test: as above
In short: as §1

HABS [17] = test: area under dose-response curve of % growth inhibition (log2 RLU vs DMSO / staurosporine), 1e-11 to 1e-4 M (% x log10 M); higher = more growth inhibition
In short: (§2)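 A 10-point threefold dilution series, mean top concentration 35 μM, was applied in triplicate to patient-derived pHGG/DIPG lines and astrocytes on 1% Geltrex-coated 384-well plates for 7 days (3 days for iAstro) at 37 °C, 5% CO2. Per-plate % activity between solvent and positive controls was calculated from log2-transformed CellTiter-Glo luminescence. Area under the curve followed from the trapezoid rule on a log-logistic fit, or on a smoothing spline when the sigmoid fit failed.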

HGGX6 [18] = test: as above
In short: as §2

DIPGX37 [19] = test: as above
In short: as §2

DIPGX9 [20] = test: as above
In short: as §2

SUDIPGXIII [21] = test: as above
In short: as §2

HABS [22] = test: maximal growth inhibition (yFin) relative to DMSO / staurosporine; higher = more efficacious
In short: as §1

SUDIPGXXI [23] = test: as above
In short: as §1

HGGX6 [24] = test: as above
In short: as §1

DIPGX37 [25] = test: as above
In short: as §1

DIPGX9 [26] = test: as above
In short: as §1

SUDIPGXVII [27] = test: as above
In short: as §1

SUDIPGXIX [28] = test: as above
In short: as §1

iAstro [29] = test: as above
In short: as §1

SUDIPGVI [30] = test: as above
In short: as §1

HGGX39 [31] = test: as above
In short: as §1

HGGX42 [32] = test: as above
In short: as §1

DIPGX7 [33] = test: as above
In short: as §1

HGGX2 [34] = test: as above
In short: as §1

SUDIPGIV [35] = test: as above
In short: as §1

DIPGX29 [36] = test: as above
In short: as §1

SUDIPGXIII [37] = test: as above
In short: as §1

Compound	EC50 (log10 M) (HABS [1])	EC50 (log10 M) (SUDIPGXXI [2])	EC50 (log10 M) (HGGX6 [3])	EC50 (log10 M) (DIPGX37 [4])	EC50 (log10 M) (DIPGX9 [5])	EC50 (log10 M) (SUDIPGXVII [6])	EC50 (log10 M) (SUDIPGXIX [7])	EC50 (log10 M) (iAstro [8])	EC50 (log10 M) (SUDIPGVI [9])	EC50 (log10 M) (HGGX39 [10])	EC50 (log10 M) (HGGX42 [11])	EC50 (log10 M) (DIPGX7 [12])	EC50 (log10 M) (HGGX2 [13])	EC50 (log10 M) (SUDIPGIV [14])	EC50 (log10 M) (DIPGX29 [15])	EC50 (log10 M) (SUDIPGXIII [16])	area under dose-response curve (HABS [17])	area under dose-response curve (HGGX6 [18])	area under dose-response curve (DIPGX37 [19])	area under dose-response curve (DIPGX9 [20])	area under dose-response curve (SUDIPGXIII [21])	maximal growth inhibition (HABS [22]) [%]	maximal growth inhibition (SUDIPGXXI [23]) [%]	maximal growth inhibition (HGGX6 [24]) [%]	maximal growth inhibition (DIPGX37 [25]) [%]	maximal growth inhibition (DIPGX9 [26]) [%]	maximal growth inhibition (SUDIPGXVII [27]) [%]	maximal growth inhibition (SUDIPGXIX [28]) [%]	maximal growth inhibition (iAstro [29]) [%]	maximal growth inhibition (SUDIPGVI [30]) [%]	maximal growth inhibition (HGGX39 [31]) [%]	maximal growth inhibition (HGGX42 [32]) [%]	maximal growth inhibition (DIPGX7 [33]) [%]	maximal growth inhibition (HGGX2 [34]) [%]	maximal growth inhibition (SUDIPGIV [35]) [%]	maximal growth inhibition (DIPGX29 [36]) [%]	maximal growth inhibition (SUDIPGXIII [37]) [%]
COC1=CC(c2cc3ccccc3[nH]2)=N/C1=C\c1[nH]c(C)cc1C [OBATOCLAX]	-5.01	-5.64	-5.1	-5.01	-5.05	-5	-5.51	-5.45	-5.71	-5.02	-5.63	-5.53	-5.97	-5	-5.01	-4.99	138	136	167	177	128	128	127	123	128	131	128	143	101	128	124	119	129	115	131	126	108
C[C@@H]1O[C@@H](O[C@H]2C[C@@H](O)[C@]3(CO)[C@H]4[C@H](O)C[C@]5(C)[C@@H](C6=CC(=O)OC6)CC[C@]5(O)[C@@H]4CC[C@]3(O)C2)[C@H](O)[C@H](O)[C@H]1O [OUABAIN]	-5.89	-6.79	-6.64	-6.7	-6.37	-6.53	-6.41	-6.91	-6.13	-6.9	-6.47	-6.78	-6.55	-6.75	-7.26	-6.47	133	173	126	168	107	69.1	90.6	64.9	46.7	70.1	73.5	83.6	47.1	60.1	75.1	53.3	100	63.9	103	53.4	46.9
Cc1[nH]c2ccccc2c1CCNCc1ccc(/C=C/C(=O)NO)cc1 [PANOBINOSTAT]	-6.59	-7.22	-6.93	-6.87	-7.16	-6.69	-6.75	-6.78	-6.87	-6.81	-6.95	-6.73	-6.89	-6.92	-6.97	-6.04	272	216	220	287	195	95.2	110	73.9	76.5	90.7	90.9	106	48	86.9	75.6	95.5	89	90	86.4	76.5	93.9
OC1(c2ccc(Cl)c(C(F)(F)F)c2)CCN(CCCC(c2ccc(F)cc2)c2ccc(F)cc2)CC1 [PENFLURIDOL]	-4.88	-5.9	-5.23	-5.35	-5.4	-5.21	-5.53	-5.63	-5.28	-5.24	-5.63	-5.6	-5.63	-5.56	-5.43	-5.21	78.4	104	126	147	110	88.6	106	84.9	93.5	105	95.6	97.4	85.2	98.5	91	98.5	102	98.9	97.2	94.8	92.8
